Measured values taken from PubChem BioAssay AID652199 (Broad Institute, 2013).
The source made the active and inactive calls.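 The calls were made as follows: active = half-maximal inhibitory concentration AC50 at or below 30 µM; inactive = the rest, including compounds with no fitted curve.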

These compounds were tested against Protein disulfide-isomerase (Homo sapiens) (UniProt P07237) (assay: inhibition of PDI-catalysed insulin clumping – biochemical, turbidity, dry powder samples, set 3, confirmation (AID 652199)). Details: absorbance 650 nm, 90 min.
Chain of Protein disulfide-isomerase (Homo sapiens) (P07237 whole entry, looked up): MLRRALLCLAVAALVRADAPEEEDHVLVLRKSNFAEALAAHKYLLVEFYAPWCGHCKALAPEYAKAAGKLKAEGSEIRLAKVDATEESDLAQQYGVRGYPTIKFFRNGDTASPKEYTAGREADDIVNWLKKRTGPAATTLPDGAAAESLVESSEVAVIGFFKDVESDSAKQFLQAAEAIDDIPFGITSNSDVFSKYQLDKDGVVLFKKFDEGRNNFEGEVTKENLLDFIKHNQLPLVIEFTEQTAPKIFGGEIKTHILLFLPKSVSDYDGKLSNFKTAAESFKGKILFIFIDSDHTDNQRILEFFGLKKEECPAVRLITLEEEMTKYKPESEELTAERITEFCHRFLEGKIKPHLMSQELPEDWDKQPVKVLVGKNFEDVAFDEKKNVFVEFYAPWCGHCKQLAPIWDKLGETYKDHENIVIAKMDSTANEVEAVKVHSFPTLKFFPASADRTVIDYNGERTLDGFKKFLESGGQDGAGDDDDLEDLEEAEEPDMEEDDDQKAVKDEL
Compound `C/C1=C\C[C@H](OC(=O)c2ccc(O)cc2)/C(C)=C/[C@@H](O)C(C)(C)CCC1` has an AC50 of 5 µM. Compound `CC(C)(C)OC(=O)C1(CCOc2ccccc2)CCN(Cc2ccc(O)c(Cl)c2)CC1` has an AC50 of 0.7 µM. Work on `O=C(NC1CCCC1)C1(CCOc2ccccc2)CCN(Cc2ccc(O)c(Cl)c2)CC1` yielded an AC50 of 3 µM. `CCOC(=O)C1(CCOc2ccccc2)CCN(C(=O)c2ccc(O)c(Cl)c2)CC1` showed an AC50 of 1.5 µM. `CCOC(=O)C1(CCOc2ccccc2)CCN(Cc2ccc(O)c(Cl)c2)CC1` was tested, and the AC50 was 0.4 µM. For `CCOC(=O)C1(CCOc2ccccc2)CCN(Cc2ccc(OC)c(Cl)c2)CC1`, the AC50 was > 30 µM (inactive). Compound `O=C(Nc1ccccc1)C1(CCOc2ccccc2)CCN(Cc2ccc(O)c(Cl)c2)CC1` has an AC50 of 30 µM. Work on `C/C1=C\[C@@H](O)C(C)(C)CCCC2(C)OC2C[C@@H]1OC(=O)c1ccc(O)cc1` (some centres not stated) yielded an AC50 of 1.5 µM. Compound `CCOC(=O)C1(CCOc2ccccc2)CCN(Cc2ccc(O)cc2)CC1` has an AC50 of 20 µM. `CC(C)OC(=O)C1(CCOc2ccccc2)CCN(Cc2ccc(O)c(Cl)c2)CC1` gave an AC50 of 0.7 µM. In the case of `CCN(C)C(=O)C1(CCOc2ccccc2)CCN(Cc2ccc(O)c(Cl)c2)CC1`, the AC50 was 3 µM. For `CCOC(=O)c1c(CN2CCN(CCO)CC2)n(-c2ccccc2)c2cc(Br)c(O)cc12`, the AC50 was 3 µM.
